Read-outs that look alike come from different tables or passages of the source.
Key:
[1] = Stability in rat microsome preparations; format: in vitro ADME; details: incubation at 37 °C, rat microsomes; read-out: rat MS, T1/2
From the text: Table 1 Screening Data for Selected Analogues ^a | column: human and rat MS, T1/2 (min) ^g

CYP 2C9 = CYP 2C9 (Homo sapiens, UniProt P11712); test: Cytochrome P450 inhibition, CYP2C9; format: in vitro ADME
MCT-induced PAH = test: Rat monocrotaline (MCT) model of PAH, preventative oral dosing; format: in vivo, male Sprague-Dawley rats; details: for inhibition of the MCT-induced increase in RV/(LV + S): oral, twice daily for 21 days, preventative mode
Method: Following anesthesia by intraperitoneal injection of 30 mg/kg pentobarbital, rats were given a subcutaneous injection of either 60 mg/kg MCT (Sigma, catalog no. C2401-1G) or 0.9% saline for the sham group. […] Hemodynamic measurements were performed with animals from the 30 mg/kg group (but not the 10 mg/kg group) anesthetized with 60 mg/kg pentobarbital. Under anesthesia, each animal was intubated with a rodent ventilator (Harvard Apparatus, model 683) at 70 breaths/min of a rate and a tidal volume of 2.5 mL in supine position on a heating pad set at 37 °C. A small opening in the apex of the right ventricle was made using a 23G needle, then a Millar catheter (Millar Instruments, Inc. model SPR-320) was placed into the right ventricle through the opening in the apex, then into the pulmonary artery (PA) for the pressure measurement. A second catheter was inserted through the […] for the measurement of mean arterial pressure. After stabilization, heart rate, mean arterial pressure, and systolic RV pressure were calculated from 20 consecutive heart beats in each rat.
The ventricles and lungs were excised and weighed. The ratio of RV weight to left ventricle plus septum (LV + S) was calculated as an index of right ventricular hypertrophy.
As the collection and preservation of the tissues are very resource intensive, 5 animals were selected from each group for measurement of vessel thickness; this was sufficient to obtain clear statistical differences between groups. Paraffin sections of 4 μm thickness were obtained from the lower region of the right lung and stained with hematoxylin/eosin. Analysis of the medial wall thickness of the pulmonary arterioles was performed. In brief, the external diameter and medial wall thickness were measured in 20 muscular arteries (25–100 μm external diameters) per lung section. For each artery, the medial wall thickness was expressed as follows: % wall thickness = [(external diameter – internal diameter)/external diameter] × 100. Each vessel was measured twice, perpendicularly along the long axis and short axis, and averages of both measurements were used.

Plasma protein binding = format: in vitro ADME; details: across all species
[2] = tested on: primary human pulmonary arterial smooth muscle cells; test: HTRF cAMP assay in primary human pulmonary arterial smooth muscle cells; format: cell-based
Method: Additional In Vitro Assays […]
Compounds were also evaluated in HTRF cAMP assays using primary human pulmonary arterial smooth muscle cells (Cell Applications, Inc., #352Kq05a, or ThermoFisher/Gibco, #C0095C) using the same basic assay protocol outlined in the Experimental section. Cells were cultured as recommended by the suppliers, used at low passage and seeded into 384qwell assay plates at a density of 700q900 cell per well

EP4 = EP4 (Homo sapiens, UniProt P35408); test: cAMP HTRF agonist assay, EP4; format: cell-based; details: for agonist activity at EP4: HTRF cAMP functional assay
From the text: Table Sup2: Data with some comparator compounds in functional assays.
Compound DP1 EP1 EP2 EP3v6 EP4
EC50, µµµµM (% I.A) EC50, µµµµM (% I.A) EC50, µµµµM (% I.A) EC50, µµµµM (% I.A) EC50, µµµµM (% I.A)
n = 3 n = 2 n = 8 n = 6 n = 6 […]

EP3v6 = biological target: T1, EP3v6 (Homo sapiens, UniProt P43115); test: Melanophore dispersion assay, EP3v6; format: cell-based; design: expressed in transfected cells; host or cells: melanophores (transient, electroporation); details: for EC50 / EP3v6 % I.A: melanophore dispersion assay (Gi); for behaviour at EP3 in melanophore platform: potencies similar to binding affinities
T1 sequence (P43115 1-374 isoform P43115-4): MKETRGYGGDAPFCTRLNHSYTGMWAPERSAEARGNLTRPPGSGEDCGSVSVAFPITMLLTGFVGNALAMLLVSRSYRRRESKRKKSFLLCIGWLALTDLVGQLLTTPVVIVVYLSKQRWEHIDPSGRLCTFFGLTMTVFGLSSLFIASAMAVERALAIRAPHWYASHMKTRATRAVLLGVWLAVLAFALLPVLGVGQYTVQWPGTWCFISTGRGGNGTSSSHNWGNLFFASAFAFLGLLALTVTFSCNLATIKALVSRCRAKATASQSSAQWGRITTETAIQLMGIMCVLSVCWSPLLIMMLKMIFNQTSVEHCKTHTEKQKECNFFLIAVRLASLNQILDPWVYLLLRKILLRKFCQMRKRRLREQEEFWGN
Method: For the EP3v6 receptor functional assay, melanophores were transfected by electroporation using 20 μg of recombinant human EP3v6 receptor plasmid DNA per 400 μL of cell suspension. Transfected cells were immediately resuspended in fresh growth medium and plated in 384-well clear, polystyrene microplates. Plated cells were incubated at 27 °C for 48 h after transfection in order to achieve optimal receptor expression. To perform the assay, growth medium was removed from the assay plates and replaced with assay buffer (40 μL/well, 0.7× PBS, pH 7.3, supplemented with 20 nM melatonin to induce pigment aggregation). Following a 90 min incubation at room temperature, a 650 nm absorbance reading was collected and test compounds (10 μL per well) were transferred to the assay plates. Plates were incubated for 90 min at room temperature to allow compound-induced pigment redistribution to take place, and final absorbance reading was then collected. Test compounds were solubilized and serially diluted in DMSO, using 5-fold dilutions, to generate a 10-point dose–response curve with a top concentration of 10 μM (final assay concentration). Samples were then further diluted in assay buffer to achieve a 5× stock prior to addition to the assay plates. A SpectraMax absorbance plate reader (Molecular Devices, Inc.) was used for data collection.
Table Sup2: Data with some comparator compounds in functional assays. […]

monkey IP = test: Radioligand binding, monkey IP ([3H]-iloprost)
Method: CHO-K1 cells expressing recombinant IP receptors were harvested, washed with ice-cold phosphate buffered saline, pH 7.4 (PBS), and then centrifuged at 48 000g for 20 min at 4 °C. The resulting cell pellet was then resuspended in ice-cold PBS containing 20 mM HEPES, pH 7.4, and 0.1 mM EDTA, homogenized on ice using a Brinkman Polytron, and centrifuged (48 000g for 20 min at 4 °C). This resuspension and centrifugation process was repeated one further time. Crude membrane pellets were stored at −80 °C until used for radioligand binding assays.
Assay incubations were terminated by rapid filtration through PerkinElmer GF/C filtration plates pretreated with 0.3% PEI, under vacuum pressure using a 96-well Packard filtration apparatus, followed by multiple washes with ice-cold wash buffer (PBS containing 20 mM HEPES and 0.1 mM EDTA, pH 7.4). Plates were then dried at 45 °C for a minimum of 2 h. Finally, 25 μL of BetaScint scintillation cocktail was added to each well and plates were counted in a Packard TopCount scintillation counter. In each competition study, test compounds were dosed at 10 concentrations with triplicate determinations at each test concentration.

[3] = read-out: plasma protein binding

EP4, sequence (P35408 whole entry): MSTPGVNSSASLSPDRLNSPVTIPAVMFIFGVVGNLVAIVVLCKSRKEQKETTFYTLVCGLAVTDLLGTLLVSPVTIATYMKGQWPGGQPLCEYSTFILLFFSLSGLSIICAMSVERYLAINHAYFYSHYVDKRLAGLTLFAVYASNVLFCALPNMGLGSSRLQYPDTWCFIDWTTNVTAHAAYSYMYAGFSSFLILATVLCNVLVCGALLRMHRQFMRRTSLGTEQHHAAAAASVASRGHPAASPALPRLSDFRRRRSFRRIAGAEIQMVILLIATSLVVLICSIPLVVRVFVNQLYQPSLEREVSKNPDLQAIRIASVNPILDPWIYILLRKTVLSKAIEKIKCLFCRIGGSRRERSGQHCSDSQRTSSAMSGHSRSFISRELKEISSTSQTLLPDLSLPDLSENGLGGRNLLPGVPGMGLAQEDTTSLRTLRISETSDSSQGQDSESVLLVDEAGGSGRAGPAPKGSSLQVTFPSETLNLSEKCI
CYP 2C9, sequence (P11712 whole entry): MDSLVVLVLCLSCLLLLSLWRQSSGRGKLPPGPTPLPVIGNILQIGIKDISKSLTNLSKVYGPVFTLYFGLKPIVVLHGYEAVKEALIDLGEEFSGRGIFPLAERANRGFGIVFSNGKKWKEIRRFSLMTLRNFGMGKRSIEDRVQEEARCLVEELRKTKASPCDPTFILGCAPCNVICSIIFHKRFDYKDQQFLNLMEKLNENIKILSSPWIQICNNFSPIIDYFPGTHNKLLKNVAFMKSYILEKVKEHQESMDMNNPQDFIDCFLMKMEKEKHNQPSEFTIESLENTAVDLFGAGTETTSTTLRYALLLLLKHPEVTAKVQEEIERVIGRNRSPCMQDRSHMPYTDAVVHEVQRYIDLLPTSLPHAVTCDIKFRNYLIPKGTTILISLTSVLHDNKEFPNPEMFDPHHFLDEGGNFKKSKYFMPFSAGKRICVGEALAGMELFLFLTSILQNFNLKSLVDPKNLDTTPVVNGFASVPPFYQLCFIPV

SMILES | half-life [1] | IC50 (CYP 2C9) | effect on hypertrophy (RV/(LV + S)) (MCT-induced PAH; 10 mg/kg oral twice daily) | pulmonary vessel wall thickness (MCT-induced PAH; 30 mg/kg oral twice daily, 5 animals) | MCT-induced increase in pulmonary arterial pressure (mPAP) (MCT-induced PAH; 30 mg/kg oral twice daily, subset of the test group (5 animals)) | inhibition of the MCT-induced increase in RV/(LV + S) (MCT-induced PAH) | fraction unbound (Plasma protein binding; read-out: free fraction) | fraction unbound (Plasma protein binding; [3]) | Efficacy (% vs. Iloprost) [95% CI], primary human PASMC cAMP [2] | agonist activity at EP4 (EP4) | EC50 (EP4; cAMP HTRF agonist assay) | EC50 (EP3v6) | EP3v6 % I.A (EP3v6) | behaviour at EP3 in melanophore platform (EP3v6) | Ki (monkey IP) | EC50 ([2]; Homo sapiens, PASMC, n = 8, read-out: EC50 [95% CI], primary human PASMC cAMP) | EP4 % I.A (EP4; cAMP HTRF agonist assay)
O=C(O)COC[C@H]1CC[C@H](COC(=O)N(c2ccccc2)c2ccc(Cl)cc2)CC1 [5c, Sodium 2-(((1r,4r)-4-(((4-Chlorophenyl)(phenyl)carbamoyloxy)methyl)cyclohexyl)methoxy)acetate] | > 1 h | > 50000 nM | did not show a statistically significant effect | significantly reduce | significantly reduce | dose-dependent inhibition | 0.01 | ~0.01 | 65 [55, 75] % | no significant agonist activity | > 10000 nM | 230 nM | 98% | behaved as EP3 agonists |  |  | 
CC#CCC(C)[C@H](O)/C=C/[C@@H]1[C@H]2C/C(=C/CCCC(=O)O)C[C@H]2C[C@H]1O (some centres unmarked) [iloprost] |  |  |  |  |  |  |  |  | 100% |  | 410 nM | 280 nM | 68% |  | 1.6 nM | 2.9 nM | 96%
O=C(O)COC[C@H]1CC[C@H](COC(=O)N(c2ccccc2)c2cccc(F)c2)CC1 [5g, 2-(((1r,4r)-4-(((3-Fluorophenyl)(phenyl)carbamoyloxy)methyl)cyclohexyl)methoxy)acetic Acid] | > 1 h | > 50000 nM |  |  |  | dose-dependent inhibition | 0.01 | ~0.01 |  | no significant agonist activity |  |  |  | behaved as EP3 agonists | 2.6 nM |  | 

From article PMC11602115 (Journal of Medicinal Chemistry, 2017)
